Results reported in patent publication US20090017070A1, “In vitro model for hepatitis c virion production” (priority 2004, published 2009).

Legend:
HCV = conditions: HCV-infected individuals treated with IFN; cited from earlier work
[1] = tested on: HCV (JFH-1, genotype 2a) in Huh7 cells; assay: Interferon treatment of HCV.JFH1-Rbz transfected Huh7 cells, viral production by HCV core Ag level in the medium; type: cell-based, Hepatitis C virus; conditions: treated with interferon one day after transfection, HCV core Ag level in medium (FIG. 13B)
Text: FIG. 13. Production of infectious HCV in culture. (A). Full-length genomic cDNAs of HCV genotypes 1a (H77), 2b (J6), and 2a (JFH-1) were cloned into the HCV-ribozyme construct as described in FIG. 7. The constructs and the pTHr plasmid containing the CG1b HCV genome as described above were transfected into Huh7 cells and tested for virus production in the medium by using HCV core Ag ELISA. (B) HCV.JFH1-Rbz construct was transfected to Huh7 cells and treated with interferon one day after transfection. Viral production was monitored by measurement of HCV core Ag level in the medium. (C) Long-term culture of HCV.JFH1.Rbz transfected Huh7 cells were maintained with serial passage for the indicated duration. Culture medium was harvested at indicated times for HCV core Ag level and HCV RNA titer. […] Multiple foci of cells with positive intracellular staining were detected.
HCV RNA, Protein Quantitation, and RACE. HCV RNA level was quantitated by using the TaqMan real-time PCR method as previously described (Thomson, M. et al. 2001 Gastroenterology 121:1226-33). […] The core protein was quantitated by using the HCV core ELISA kits, which were provided by S. Yagi (Advanced Life Technology, Saitama, Japan) and used as previously described (Tanaka, E. et al. 2000 Hepatology 32: 388-93). […]

## interferon-alfa
HCV
  Proportion of those treated showing a sustained response as evidenced by lack of circulating HCV RNA: 10-20%
[1]
  Sensitivity of viral replication to interferon-alfa treatment: sensitive
